In PMC7076374, “Improved Pharmacokinetics and Tissue Uptake of Complexed Daidzein in Rats” (Pharmaceutics, 2020):
Like-named read-outs stand apart in the source and are kept apart here.

Experiments:
in vivo [1] = details: for tmax: DAI in suspension, i.p. 50 mg/kg, rat serum
Description: (§1) DAI in the form of a suspension in saline was administered to the rats at the doses of 20 mg/kg (i.v.) and 50 mg/kg (i.p.).
The second study was conducted in 48 animals to assess DAI tissue penetration and bioavailability. […] Animals were deeply anaesthetized by i.p. injections of 50 mg/kg ketamine plus 8 mg/kg xylazine before sacrifice. First, the blood was collected by retro-orbital puncture, and the blood samples were centrifuged to obtain serum. The serum samples were frozen in a freezer at −80 °C. A whole-body saline perfusion was then performed after wide laparotomy when the heart was exposed, and the tip of the needle was inserted into the left ventricle and the right atrium was cut to allow efflux of blood. This procedure allowed the blood from all tissues to be washed out to determine the amount of DAI in the tissue, excluding its content in the blood. Following the animals’ euthanasia, the following samples were collected: whole brain, whole eyes, liver lobe, abdominal fat, one kidney, whole spleen, one testis, and selected parts of heart and lungs. The brain was cut between hemispheres in halves; one half was weighed, inserted into 2 mL of SDS-tris lysing buffer (100 mM tris buffer, 10% glycerol, 1% sodium dodecyl sulfate), and homogenized with a tissue homogenizer. The other half of the brain, the homogenates, and all other tissue samples collected were immediately shock-frozen in liquid nitrogen and stored at −80 °C for future analysis.
(§2) PK parameters were calculated using a non-compartmental approach from the average concentration values, using Phoenix WinNonlin software (Certara, St. Louis, MO, USA). The first-order elimination rate constant (λz) was calculated by linear regression of log concentration versus time. The area under the mean serum and tissue concentration versus time curve (AUC0⟶t) was calculated from zero to the last concentration point using the linear trapezoidal rule as (1) AUC0→t=∑i=1nCi+Ci+1/2·(ti+1−ti) where Ci is the concentration of the compound.
(§3) The area under the first-moment curve (AUMC0⟶t) was estimated by calculation of the total area under the first-moment curve:(2) AUMC0→t=∑i=1n((ti·Ci+ti+1·Ci+1)/2)·(ti+1−ti) where ti is the […].
(§4) Mean residence time (MRT) was calculated as (3) MRT=AUMC0→t/AUC0→t

in vivo [2] = details: rat, iv, 20 mg/kg
Description: as §1
Blood samples were collected via a retro-orbital puncture at 15 min, 30 min, 3 h, 5 h, and 24 h after i.v. administration. The first two blood samples (at 15 min and 30 min) were withdrawn while the rats were still under general anesthesia. For the later time-points, the blood was taken under a short isoflurane anesthesia. One mL of saline was administered i.p. after every blood withdrawal to compensate the loss of water. The rats were sacrificed by decapitation 24 h after compound administration. All blood samples were centrifuged to obtain serum. The serum samples were frozen in a freezer at −80 °C.
as §2, §3, §4
Systemic clearance (Cl) was calculated as (4) Cl=Div/AUC0→t
The volume of distribution at steady state (Vss) was calculated as (5) Vss=Div⋅AUMC0→t/(AUC0→t)^2

[3] = healthy premenopausal women, cited from earlier work
[4] = male, rat, in vivo, ip, 50 mg/kg

O=c1c(-c2ccc(O)cc2)coc2cc(O)ccc12 [DAI in Suspension, 7-hydroxy-3-(4-hydroxyphenyl)-4H-chromen-4-one]
tmax (in vivo [1]; 50 mg/kg): 0.75 h
bioavailability (in vivo [1]; male, rat, in vivo): 28.2%
AUC (in vivo [1]; [4]): 1110 ng·h/mL
CL/F (in vivo [1]; [4]): 775 mL/min/kg
MRT (in vivo [1]; [4]): 3.63 h
Vd/F (in vivo [1]; [4]): 220 L/kg
half-life (in vivo [1]; [4]): 3.41 h
Cmax (in vivo [1]; male, rat, in vivo, ip, 50 mg/kg, Cmax): 173 ng/mL
tmax (in vivo [1]; male, rat, in vivo, ip, 50 mg/kg, tmax): ≤ 0.75 h
AUC (in vivo [2]): 1580 ng·h/mL
C0 (in vivo [2]): 6160 ng/mL
MRT (in vivo [2]): 4.29 h
clearance (in vivo [2]): 211 mL/min/kg
half-life (in vivo [2]): 3.83 h
Bioavailability of DAI ([3]; first value of '5.15% vs. 8.7%', at higher intakes): 5.15%
Bioavailability of DAI ([3]; second (comparison) value of '5.15% vs. 8.7%'): 8.7%
